Measurements: PubChem BioAssay AID1963842 (Molecular Pharmacology Branch, DTP, NCI, 2024)
Several values for one entry are separate records, joined by “and”; a condition that tells them apart may be missing. Identical values can stand only once.

Test system: 677734-321-R-J1-PDC complex spheroid viability
Test: Anticancer human tumor 677734-321-R-J1-PDC patient-derived soft tissue sarcoma cell line growth inhibition [POLQ]
Settings: for viability, T/C: stronger effect = lower value
Method: Multicellular complex tumor spheroid response to Polymerase (POL) inhibitors (novobiocin, ART-558, RP6685) in combination with a variety of drugs and investigational agents in selected tumor cell lines
The POL inhibitors (novobiocin, ART-558, and RP6685) were evaluated both individually and in combination with standard of care and investigational anticancer small molecules within a complex spheroid model of solid tumors. . Complex spheroids include a stromal component modeled by human endothelial cells (HUVEC) and fibroblasts modeled by human mesenchymal stem cells (MSCs). The concentration ranges selected for each drug and investigational agent were based upon clinically achievable concentrations if the clinical Cmax of the agent was known.
Compounds. The drugs and investigational agents: novobiocin (NSC847541), ART-558 (NSC835418), RP-6685 (NSC848927), peposertib (NSC802822), ceralasertib (NSC780249), elimusertib (NSC800525), camonsertib (NSC841442), AZD-1390 (NSC803789), olaparib (NSC753686), talazoparib (NSC767125), rucaparib (NSC756644), sotorasib (NSC818433), MRTX-1133 (NSC836407), SN-38 (NSC673596), topotecan (NSC609699), epotoside (NSC141540), doxorubicin (NSC123127), gemcitabine (NSC613327), 5-fluorouracil (NSC19893), paclitaxel (NSC125973), vemurafenib (NSC761431), MSA-2 (NSC828583), SN-011 (NSC837082), adavosertib (NSC754352), prexasertib (NSC758257), carboplatin (NSC241240) and oxaliplatin (NSC266046), were obtained from the National Cancer Institute (NCI) Developmental Therapeutics Program Chemical Repository (21). The FDA-approved anticancer drug set is available from the Developmental Therapeutics Program at https://dtp.cancer.gov/organization/dscb/obtaining/. […] The stock solutions were prepared in dimethyl sulfoxide (DMSO, Sigma-Aldrich, St. Louis, MO, cat. D2650), except for the platinum compounds which were prepared in saline (Quality Biological, Gaithersburg, MD, cat. 114-055-101), at 800-fold the tested concentration and stored at -70 degrees C prior to their use. All drugs and investigational agents were tested over a range starting from a high concentration at or near the clinical Cmax and decreasing in half-log increments. If the clinical Cmax for an agent had not been determined, the highest concentration tested was 10 microM, except for SN-38, which was tested at a high concentration of 1 microM.
Cell Culture. All cells were maintained in an incubator at 37 degrees C and 5% CO2 with 95% humidity. The PDC lines were cultured according to standard operating procedures established by the NCI PDMR (https://pdmr.cancer.gov). Table 3 of the manuscript, lists the cell lines along with the number of the three cell types plated to form the mct-spheroids and media for tumor cell growth. After thawing, all PDC lines, except 997537-175-T-J1-PDC and 415267-285-R-J2-PDC, were cultured in Matrigel-coated flasks prepared with a working solution of 1X Ham's F-12 nutrient mix, without supplementation (Thermo Fisher Scientific, cat. 11765054), 100 U/mL penicillin-streptomycin (Thermo Fisher Scientific, cat. 15140122), and 2.5% Matrigel (Corning Inc., Corning, NY, cat. 354248) for the first three passages. The two PDC lines 997537-175-T-J1-PDC and 415267-285-R-J2-PDC were cultured on uncoated flasks. The 857933-349-R-J2-PDC line was cultured in 6C/Colon 1B media containing advanced DMEM/F-12 (Thermo Fisher Scientific, cat. 12634028), 10 mM HEPES (Thermo Fisher Scientific, cat. 15630080), 1X GlutaMAX supplement (Thermo Fisher Scientific, cat. 35050061), 0.1 mg/mL primocin (InvivoGen, San Diego, CA, cat. ant-pm-2), 10% defined fetal bovine serum, heat inactivated (HyClone Laboratories Inc., Logan, UT, cat. SH30070.03HI), 50% L-WRN conditioned media (ATCC, cat. CRL-3276), 1.25 mM N-Acetyl-L-cysteine (Sigma-Aldrich, cat. A9165), 10 mM nicotinamide (Sigma-Aldrich, cat. N0636), 1X B-27 supplement (Thermo Fisher Scientific, cat. 17504044), 1X N-2 supplement (Thermo Fisher Scientific, cat. […]
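Note: spheroids exposed to compounds for one week.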
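Throughout, for viability, T/C: 100% = vehicle DMSO treated spheroids.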

With CC(=O)O[C@H]1C(=O)[C@@]2(C)[C@H]([C@H](OC(=O)c3ccccc3)[C@]3(O)C[C@H](OC(=O)[C@H](O)[C@@H](NC(=O)c4ccccc4)c4ccccc4)C(C)=C1C3(C)C)[C@]1(OC(C)=O)CO[C@@H]1C[C@@H]2O + Cc1cccc(N(C)C(=O)C2C(O)CCN2c2nc(C)cc(C(F)(F)F)c2C#N)c1 the IC50 (curve of first compound, second compound 0.0316 µM) was less than 9.49 nM, the IC50 (curve of first compound, second compound 0.1 µM) was less than 9.49 nM and the IC50 (curve of first compound, second compound 0.316 µM) was less than 9.49 nM. For the same compound, the IC50 (curve of first compound, second compound 1 µM) was less than 9.49 nM, the IC50 (curve of first compound, second compound 3.16 µM) was less than 9.49 nM and the IC50 (curve of first compound, second compound 10 µM) was less than 9.49 nM. It also gave a viability, T/C (second compound 0.0316 µM, first compound 0.00949 µM) of 21.8%, a viability, T/C (second compound 0.0316 µM, first compound 0.03 µM) of 14.4% and a viability, T/C (second compound 0.0316 µM, first compound 0.0949 µM) of 14.1%. The viability, T/C (second compound 0.0316 µM, first compound 0.3 µM) was 12.6%, the viability, T/C (second compound 0.0316 µM, first compound 0.949 µM) was 10.9% and the viability, T/C (second compound 0.0316 µM, first compound 3 µM) was 12.8%. The viability, T/C (second compound 0.1 µM, first compound 0.00949 µM) was 23.7%, the viability, T/C (second compound 0.1 µM, first compound 0.03 µM) was 16.1% and the viability, T/C (second compound 0.1 µM, first compound 0.0949 µM) was 13.6%. It also gave a viability, T/C (second compound 0.1 µM, first compound 0.3 µM) of 13.3%, a viability, T/C (second compound 0.1 µM, first compound 0.949 µM) of 13.5% and a viability, T/C (second compound 0.1 µM, first compound 3 µM) of 15.6%. The viability, T/C (second compound 0.316 µM, first compound 0.00949 µM) was 22.8%, the viability, T/C (second compound 0.316 µM, first compound 0.03 µM) was 18.9% and the viability, T/C (second compound 0.316 µM, first compound 0.0949 µM) was 12.4%. For the same compound, the viability, T/C (second compound 0.316 µM, first compound 0.3 µM) was 10.3%, the viability, T/C (second compound 0.316 µM, first compound 0.949 µM) was 12.4% and the viability, T/C (second compound 0.316 µM, first compound 3 µM) was 13.9%. The viability, T/C (second compound 1 µM, first compound 0.00949 µM) was 26%, the viability, T/C (second compound 1 µM, first compound 0.03 µM) was 23.1% and the viability, T/C (second compound 1 µM, first compound 0.0949 µM) was 14%. It also gave a viability, T/C (second compound 1 µM, first compound 0.3 µM) of 11.4%, a viability, T/C (second compound 1 µM, first compound 0.949 µM) of 9.6% and a viability, T/C (second compound 1 µM, first compound 3 µM) of 9.4%. It also gave a viability, T/C (second compound 3.16 µM, first compound 0.00949 µM) of 23.6%, a viability, T/C (second compound 3.16 µM, first compound 0.03 µM) of 13.4% and a viability, T/C (second compound 3.16 µM, first compound 0.0949 µM) of 12.2%. The viability, T/C (second compound 3.16 µM, first compound 0.3 µM) was 12.8%, the viability, T/C (second compound 3.16 µM, first compound 0.949 µM) was 12% and the viability, T/C (second compound 3.16 µM, first compound 3 µM) was 14.6%. For the same compound, the viability, T/C (second compound 10 µM, first compound 0.00949 µM) was 27.3%, the viability, T/C (second compound 10 µM, first compound 0.03 µM) was 12.4% and the viability, T/C (second compound 10 µM, first compound 0.0949 µM) was 12.2%. It also gave a viability, T/C (second compound 10 µM, first compound 0.3 µM) of 14.5%, a viability, T/C (second compound 10 µM, first compound 0.949 µM) of 11.3% and a viability, T/C (second compound 10 µM, first compound 3 µM) of 11.4%.
With CCc1cc2c(N3CCc4c(cc(Cn5ccnc5)cc4-c4cn(C)nc4C(F)(F)F)C3=O)ccnc2c(OC)n1 the viability, T/C (compound 0.0316 µM) was 108% and 98.5% and 105%, the viability, T/C (compound 0.1 µM) was 109% (2×) and 102% and the viability, T/C (compound 0.316 µM) was 98% and 85.5% and 106%. The viability, T/C (compound 1 µM) was 100% and 93.7% and 73.7%, the viability, T/C (compound 3.16 µM) was 92.4% and 69% and 64.4% and the viability, T/C (compound 10 µM) was 63.6% and 50.2% and 39.2%. For the same compound, the IC50 (curve of compound) was > 10000 nM and 5580 nM.
CC1COCCN1c1cc(C2(S(C)(=N)=O)CC2)nc(-c2ccnc3[nH]ccc23)n1 (stereo unspecified) was tested, and the viability, T/C (compound 0.0316 µM) was 109% and 103% and 113%, the viability, T/C (compound 0.1 µM) was 97.4% and 99.3% and 104% and the viability, T/C (compound 0.316 µM) was 92% and 80.2% and 107%. The viability, T/C (compound 1 µM) was 86.7% and 51.1% and 86.6%, the viability, T/C (compound 3.16 µM) was 60.8% and 28.3% and 55.8% and the viability, T/C (compound 10 µM) was 21.6% and 9.59% and 22.4%. The IC50 (curve of compound) was 4390 nM and 1130 nM and 3830 nM.
